Measured values published in patent US11771738B2 (Zoetis Services LLC, priority 2018, dated 2023).
Read-outs that look alike come from different tables or passages of the source.

Tests used:
Type in all cases: cell-based
[1] = test system: microfilariae of Dirofilaria immitis; experiment: Dirofilaria immitis, Microfilaria (DiMf) In Vitro Assay; conditions: Dirofilaria immitis, 72 h, read-out: DiMf MED, Minimum Effective Dose, D. immitis microfilariae motility, in vitro
D. immitis L4 larvae = experiment: Dirofilaria immitis, L4 Stage (DiL4) In Vitro Assay; conditions: for minimal effective concentration: Dirofilaria immitis, 72 h, read-out: DiL4 MED, Minimum Effective Dose, D. immitis L4 larvae motility, in vitro; for DiMf/DiL4: larval stage selectivity, ratio of DiMf MED to DiL4 MED
[2] = test system: third stage larvae of Haemonchus contortus; experiment: Haemonchus contortus, Larvae Stage 3 (HcL3) In Vitro Assay; conditions: Haemonchus contortus, 96 h
[3] = read-out: HcL3 MED, Haemonchus contortus third stage larvae in vitro, class mark appended to the Ex # in Table 3
[4] = read-out: HcL3 MED, Minimum Effective Dose, H. contortus third stage larvae, approximately 96 hours
[5] = read-out: HcL3 MED, approximately 96 hours incubation, multiple-resistant field isolate

SMILES	minimal effective concentration [1] [µM]	minimal effective concentration (D. immitis L4 larvae) [µM]	DiMf/DiL4 (D. immitis L4 larvae)	minimal effective concentration [2, 3] [µM]	minimal effective concentration [2, 4] [µM]	minimal effective concentration [2, 5] [µM]
CC(C)C[C@H]1C(=O)O[C@H](Cc2ccc(Cc3cnccc3C(F)F)cc2)C(=O)N(C)[C@@H](CC(C)C)C(=O)O[C@H](C)C(=O)N(C)[C@@H](CC(C)C)C(=O)O[C@H](Cc2ccc(Cc3cnccc3C(F)F)cc2)C(=O)N(C)[C@@H](CC(C)C)C(=O)O[C@H](C)C(=O)N1C [Example 3-295, (3S,6R,9S,12R,15S,18R,21S,24R)-6,18-bis(4-((4-(difluoromethyl)pyridin-3-yl)methyl)benzyl)-3,9,15,21-tetraisobutyl-4,10,12,16,22,24-hexamethyl-1,7,13,19-tetraoxa-4,10,16,22-tetraazacyclotetracosan-2,5,8,11,14,17,20,23-octaone]	0.005	0.0003	16.7	1 to 3.3	1.8	
CC(C)C[C@H]1C(=O)O[C@H](Cc2ccc(Cc3cccnc3C3CC3)cc2)C(=O)N(C)[C@@H](CC(C)C)C(=O)O[C@H](C)C(=O)N(C)[C@@H](CC(C)C)C(=O)O[C@H](Cc2ccc(Cc3cccnc3C3CC3)cc2)C(=O)N(C)[C@@H](CC(C)C)C(=O)O[C@H](C)C(=O)N1C [Example 3-296, (3S,6R,9S,12R,15S,18R,21S,24R)-6,18-bis(4-((2-cyclopropylpyridin-3-yl)methyl)benzyl)-3,9,15,21-tetraisobutyl-4,10,12,16,22,24-hexamethyl-1,7,13,19-tetraoxa-4,10,16,22-tetraazacyclotetracosan-2,5,8,11,14,17,20,23-octaone]	0.03	0.0005	60	1 to 3.3	1.8	
CC(C)C[C@H]1C(=O)O[C@H](Cc2ccc(Cc3cccnc3OC(F)F)cc2)C(=O)N(C)[C@@H](CC(C)C)C(=O)O[C@H](C)C(=O)N(C)[C@@H](CC(C)C)C(=O)O[C@H](Cc2ccc(Cc3cccnc3OC(F)F)cc2)C(=O)N(C)[C@@H](CC(C)C)C(=O)O[C@H](C)C(=O)N1C [Example 3-297, (3S,6R,9S,12R,15S,18R,21S,24R)-6,18-bis(4-((2-(difluoromethoxy)pyridin-3-yl)methyl)benzyl)-3,9,15,21-tetraisobutyl-4,10,12,16,22,24-hexamethyl-1,7,13,19-tetraoxa-4,10,16,22-tetraazacyclotetracosan-2,5,8,11,14,17,20,23-octaone]	0.03	0.001	30		> 10	
CC(C)C[C@H]1C(=O)O[C@H](Cc2ccc(Cc3cnccc3C#N)cc2)C(=O)N(C)[C@@H](CC(C)C)C(=O)O[C@H](C)C(=O)N(C)[C@@H](CC(C)C)C(=O)O[C@H](Cc2ccc(Cc3cnccc3C#N)cc2)C(=O)N(C)[C@@H](CC(C)C)C(=O)O[C@H](C)C(=O)N1C [Example 3-307, 3,3′-(((((2R,5S,8R,11S,14R,17S,20R,23S)-5,11,17,23-tetraisobutyl-4,8,10,16,20,22-hexamethyl-3,6,9,12,15,18,21,24-octaoxo-1,7,13,19-tetraoxa-4,10,16,22-tetraazacyclotetracosane-2,14-diyl)bis(methylene))bis(4,1-phenylene))bis(methylene))diisonicotinonitrile]	0.0003	0.0001	3	< 1	1	≤ 1
CSc1ncccc1Cc1ccc(C[C@H]2OC(=O)[C@H](CC(C)C)N(C)C(=O)[C@@H](C)OC(=O)[C@H](CC(C)C)N(C)C(=O)[C@@H](Cc3ccc(Cc4cccnc4SC)cc3)OC(=O)[C@H](CC(C)C)N(C)C(=O)[C@@H](C)OC(=O)[C@H](CC(C)C)N(C)C2=O)cc1 [Example 3-308, (3S,6R,9S,12R,15S,18R,21S,24R)-3,9,15,21-tetraisobutyl-4,6,10,16,18,22-hexamethyl-12,24-bis(4-((2-(methylthio)pyridin-3-yl)methyl)benzyl)-1,7,13,19-tetraoxa-4,10,16,22-tetraazacyclotetracosan-2,5,8,11,14,17,20,23-octaone]	0.01	0.001	10	1 to 3.3	3.3	
Cc1cnccc1Cc1ccc(C[C@H]2OC(=O)[C@H](CC(C)C)N(C)C(=O)[C@@H](C)OC(=O)[C@H](CC(C)C)N(C)C(=O)[C@@H](Cc3ccc(Cc4ccncc4F)cc3)OC(=O)[C@H](CC(C)C)N(C)C(=O)[C@@H](C)OC(=O)[C@H](CC(C)C)N(C)C2=O)cc1 [Example 3-309, (3S,6R,9S,12R,15S,18R,21S,24R)-6-(4-((3-fluoropyridin-4-yl)methyl)benzyl)-3,9,15,21-tetraisobutyl-4,10,12,16,22,24-hexamethyl-18-(4-((3-methylpyridin-4-yl)methyl)benzyl)-1,7,13,19-tetraoxa-4,10,16,22-tetraazacyclotetracosan-2,5,8,11,14,17,20,23-octaone]	0.003	0.00055	5.5	1 to 3.3	3.3	
CCc1ncncc1Cc1ccc(C[C@H]2OC(=O)[C@H](CC(C)C)N(C)C(=O)[C@@H](C)OC(=O)[C@H](CC(C)C)N(C)C(=O)[C@@H](Cc3ccc(Cc4cncnc4CC)cc3)OC(=O)[C@H](CC(C)C)N(C)C(=O)[C@@H](C)OC(=O)[C@H](CC(C)C)N(C)C2=O)cc1 [Example 3-310, (3S,6R,9S,12R,15S,18R,21S,24R)-6,18-bis(4-((4-ethylpyrimidin-5-yl)methyl)benzyl)-3,9,15,21-tetraisobutyl-4,10,12,16,22,24-hexamethyl-1,7,13,19-tetraoxa-4,10,16,22-tetraazacyclotetracosan-2,5,8,11,14,17,20,23-octaone]	0.0003	0.001	0.3	< 1	1	≤ 1
CC(C)C[C@H]1C(=O)O[C@H](Cc2ccc(Cc3cccc(F)n3)cc2)C(=O)N(C)[C@@H](CC(C)C)C(=O)O[C@H](C)C(=O)N(C)[C@@H](CC(C)C)C(=O)O[C@H](Cc2ccc(Cc3cccc(F)n3)cc2)C(=O)N(C)[C@@H](CC(C)C)C(=O)O[C@H](C)C(=O)N1C [Example 3-313, (3S,6R,9S,12R,15S,18R,21S,24R)-6,18-bis(4-((6-fluoropyridin-2-yl)methyl)benzyl)-3,9,15,21-tetraisobutyl-4,10,12,16,22,24-hexamethyl-1,7,13,19-tetraoxa-4,10,16,22-tetraazacyclotetracosan-2,5,8,11,14,17,20,23-octaone]	0.003	0.00055	5.5		0.55	
CC(C)C[C@H]1C(=O)O[C@H](Cc2ccc(Cc3cncnc3C(F)(F)F)cc2)C(=O)N(C)[C@@H](CC(C)C)C(=O)O[C@H](C)C(=O)N(C)[C@@H](CC(C)C)C(=O)O[C@H](Cc2ccc(Cc3cncnc3C(F)(F)F)cc2)C(=O)N(C)[C@@H](CC(C)C)C(=O)O[C@H](C)C(=O)N1C [Example 3-318, (3S,6R,9S,12R,15S,18R,21S,24R)-3,9,15,21-tetraisobutyl-4,6,10,16,18,22-hexamethyl-12,24-bis(4-((4-(trifluoromethyl)pyrimidin-5-yl)methyl)benzyl)-1,7,13,19-tetraoxa-4,10,16,22-tetraazacyclotetracosan-2,5,8,11,14,17,20,23-octaone]	0.0003	3e-05	10		0.55	
CC(C)C[C@H]1C(=O)O[C@H](Cc2ccc(Cc3cccnc3Cl)cc2)C(=O)N(C)[C@@H](CC(C)C)C(=O)O[C@H](C)C(=O)N(C)[C@@H](CC(C)C)C(=O)O[C@H](Cc2ccc(Cc3cccnc3Cl)cc2)C(=O)N(C)[C@@H](CC(C)C)C(=O)O[C@H](C)C(=O)N1C [Example 3-319, (3S,6R,9S,12R,15S,18R,21S,24R)-6,18-bis(4-((2-chloropyridin-3-yl)methyl)benzyl)-3,9,15,21-tetraisobutyl-4,10,12,16,22,24-hexamethyl-1,7,13,19-tetraoxa-4,10,16,22-tetraazacyclotetracosan-2,5,8,11,14,17,20,23-octaone]	0.00173	5.5e-05	31.5	< 1	0.55	≤ 1
CC(C)C[C@H]1C(=O)O[C@H](Cc2ccc(Cc3cncnc3C(F)F)cc2)C(=O)N(C)[C@@H](CC(C)C)C(=O)O[C@H](C)C(=O)N(C)[C@@H](CC(C)C)C(=O)O[C@H](Cc2ccc(Cc3cncnc3C(F)F)cc2)C(=O)N(C)[C@@H](CC(C)C)C(=O)O[C@H](C)C(=O)N1C [Example 3-321, (3S,6R,9S,12R,15S,18R,21S,24R)-6,18-bis(4-((4-(difluoromethyl)pyrimidin-5-yl)methyl)benzyl)-3,9,15,21-tetraisobutyl-4,10,12,16,22,24-hexamethyl-1,7,13,19-tetraoxa-4,10,16,22-tetraazacyclotetracosan-2,5,8,11,14,17,20,23-octaone]	5e-05	2e-05	2.5	< 1	0.3	≤ 1
